Data published in patent US7892767B2, “Phosphospecific chemokine receptor antibodies” (Washington University in St. Louis, priority 2005, dated 2011).

What was measured:
[1] = test system: PDE4A-expressing U87 cells; experiment: Viable cell number, PDE4A-expressing U87 cells; assay type: cell-based, human; settings: CXCL12 1 μg/ml, AMD 3465 2.5 μg/ml, Rolipram 200 μM
Experimental: PDE4A expression. U87 and Daoy cells (15,000 cells) were transiently transfected for 48 h with a plasmid encoding a transgene for the tet-off transactivator (tTA) alone (kind gift from Dr. Louis Muglia, Washington University School of Medicine, St. Louis, Mo.), a plasmid containing a transgene for tet-off regulated expression of phosphodiesterase 4A (PDE4A) alone (kind gift from Dr. James Cherry, Boston University, Boston, Mass.), or a combination of both plasmids, using lipofectamine (Invitrogen) according to the manufacturer's instructions. Plasmid DNA (2 μg) was mixed with lipofectamine (5 μl) per 35 mm^2 dish. Transfection proceeded for 9 hours prior to exchanging transfection media for αMEM supplemented with 10% FCS.

U87 glioblastoma cells = experiment: Viable cell number by trypan blue exclusion, U87 cells; assay type: cell-based, human; settings: CXCL12 1 μg/ml
Experimental: Brain tumor cell cultures. Cells were cultured in αMEM (Invitrogen, Carlsbad, Calif.) supplemented with 10% FCS (Biomedia, Foster City, Calif.) in the presence of penicillin streptomycin at 37° C. with 5% CO2.
Growth factor and drug treatment. Following serum-starvation for 24 hours, astrocytes, granule cells, U87 cells and Daoy cells, were treated with 1 μg/ml CXCL12 (PeproTech), […] AMD3465 (kind gift from Simon Fricker, AnorMED, Langley, BC, Canada) (200 μM Rolipram (Sigma), or 10 μM Forskolin (Sigma) as indicated.

CXCL12: chemokine ligand of CXCR4 (Peprotech)
effect on cell number [1]: no longer any benefit | increase in cell number (U87 glioblastoma cells): greater than 2 fold | increase in cell number (U87 glioblastoma cells; serum-free): greater than 200%
